Patent publication EP0825187A1, “Condensed pyridazinyl guanidines, their production and use” (TAKEDA CHEMICAL INDUSTRIES, LTD., priority 1996, dated 1998)
Structures can show the parent of a compound that is named as a salt.

Target: T1, Na-H exchange (Rattus norvegicus, UniProt P26431)
T1 construct: The blood was centrifuged at 3000 r.p.m. for […] to obtain platelet rich plasma (PRP); from tissue; host or cells: platelets in platelet rich plasma from the blood of male Wistar rats
Experiment: Inhibition of platelet swelling (light transmittance of platelet rich plasma after sodium propionate), indicator of Na-H exchange inhibition
Format: cell-based, Wistar rats
Details: rat PRP, value one minute after sodium propionate solution (pH 6.7, 37 °C), difference between 1% DMSO and HOE-642 (10^-5 M) taken as 100
Procedure: Male Wistar rats (350-450 g) were anesthetized with sodium pentobarbital (50 mg/kg, i.p.). Using a disposable syringe pre-filled with 1.5 ml of a 3.8% citric acid solution, 8.5 ml of blood was collected from the abdominal aorta. The blood was centrifuged at 3000 r.p.m. for […] to obtain platelet rich plasma (PRP). The number of platelets in the PRP was counted by an automatic hemocytometer (Sysmex 2500, TOA Medical Electronics). The PRP was diluted with physiological saline to make the concentration of 40 x 10^4 platelets per microliter. A platelet aggregometer (Hematoracer, Niko Bioscience) was used for mesurement of the platelet swelling. 200 Microliters of the PRP was poured into a cuvette and 600 µl of a sodium propionate solution (Na propionate 135, glucose 10: HEPES 20, CaCl2 1, MgCl2 1, Units mM, pH 6.7) was added while stirring at 37 °C. The change in the light transmittance of PRP which was an indicator of the platelet swelling was recorded on a plotter. The test compound was added 3 minutes before addition of the sodium propionate solution. Test compounds were dissolved in dimethyl sulfoxide (DMSO). The final concentration of DMSO was adjusted to 1%. The values obtained one minute after addition of the sodium propionate solution were subjected to analysis. The rate of the inhibition of the test compound on the increase of the light transmittance was calculated designating the difference obtained between the treatments with 1% DMSO and HOE-642 (10^-5 M) as 100. […]

T1 sequence (P26431 whole entry): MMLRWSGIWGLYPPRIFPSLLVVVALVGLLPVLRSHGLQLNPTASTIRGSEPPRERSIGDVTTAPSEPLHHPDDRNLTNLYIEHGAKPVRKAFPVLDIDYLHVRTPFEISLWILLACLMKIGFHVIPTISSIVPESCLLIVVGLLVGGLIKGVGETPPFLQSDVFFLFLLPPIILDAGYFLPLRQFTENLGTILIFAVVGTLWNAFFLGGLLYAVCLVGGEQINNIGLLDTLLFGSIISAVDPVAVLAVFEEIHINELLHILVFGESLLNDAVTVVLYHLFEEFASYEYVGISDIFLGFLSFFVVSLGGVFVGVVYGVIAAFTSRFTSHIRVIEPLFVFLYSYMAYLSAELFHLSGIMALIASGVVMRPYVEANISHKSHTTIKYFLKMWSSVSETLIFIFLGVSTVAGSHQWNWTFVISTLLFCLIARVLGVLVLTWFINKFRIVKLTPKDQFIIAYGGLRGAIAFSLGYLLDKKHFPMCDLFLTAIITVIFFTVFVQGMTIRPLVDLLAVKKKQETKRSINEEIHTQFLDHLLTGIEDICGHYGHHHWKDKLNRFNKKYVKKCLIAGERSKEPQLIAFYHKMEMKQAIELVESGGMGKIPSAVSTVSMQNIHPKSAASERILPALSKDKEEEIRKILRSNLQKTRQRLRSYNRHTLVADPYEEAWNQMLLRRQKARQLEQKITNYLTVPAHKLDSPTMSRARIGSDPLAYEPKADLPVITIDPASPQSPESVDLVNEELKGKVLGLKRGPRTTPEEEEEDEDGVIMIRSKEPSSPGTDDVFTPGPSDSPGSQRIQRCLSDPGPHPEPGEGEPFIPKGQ

Compound | Inhibitory ratio (%) (1µM) | Inhibitory ratio (%) (3µM)
NC(N)=Nc1nnc(-c2ccc(F)cc2)c2cccc(I)c12 [Compound 36, 4-(4-fluorophenyl)-8-iodophthalazin-1-ylguanidine] | 58 | 78
NC(N)=Nc1nnc(-c2ccccc2)c2cccc(Br)c12 [Compound 13, 8-bromo-4-phenylphthalazin-1-ylguanidine] | 60 | 99
8-methyl-4-(2-methylphenyl)phthalazin-1-ylguanidine [Compound 44] | 55 | 73
Cc1ccccc1-c1nnc(N=C(N)N)c2c(I)cccc12 [Compound 28, 8-iodo-4-(2-methylphenyl)phthalazin-1-ylguanidine] | 66 | 96
Cc1ccccc1-c1nnc(N=C(N)N)c2c(Br)cccc12 [Compound 24, 8-bromo-4-(2-methylphenyl)phthalazin-1-ylguanidine] | 62 | 78
NC(N)=Nc1nnc(-c2ccccc2)c2cccc(I)c12 [Compound 4, 8-iodo-4-phenylphthalazin-1-ylguanidine hydrochloride] | 66 | 78
